The values that follow are results of earlier work, collected in patent US6831041B2, “Oil suspension concentrates based on a cyclohexenone oxime ether lithium salt and the use thereof as plant protection agents” (BASF Aktiengesellschaft, priority 2000, dated 2004).

The structures appear in SMILES notation.

For the data set the following is noted: formulated together with calcium glyphosate as oil suspension concentrate.

Regarding `CCCC(CC(C)=NOCC=CCl)C1=C(O)CC(C2CCCOC2)CC1=O` (stereo not shown) [2-{1-[2-(3-chloroallyloxy)iminopropyl]-butyl}-3-hydroxy-5-(tetrahydropyran-3-yl)cyclohex-2-enone], the “stability in formulation (in words)” value is “insufficient stability”.
